Laboratory results from ChEMBL document CHEMBL1201862, “PubChem BioAssay data set” (2004).
Active and inactive are the calls of the source.

How the values were obtained:
Cytochrome P450 2D6 = Cytochrome P450 2D6 (Homo sapiens, UniProt P10635);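 also: CYP2D6 member of a cytochrome P450 panel assay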
Cytochrome P450 2C9 = Cytochrome P450 2C9 (Homo sapiens, UniProt P11712)
[1] = Counterscreen for AddAB inhibitors: absorbance-based bacterial cell-based high throughput dose response assay for inhibitors of bacterial viability. [Related pubchem assays (depositor defined):AID435030, AID449728, AID449731, AID488942, AID488955, AID488956]; assay type: functional
Exodeoxyribonuclease V = molecular target: T1, Exodeoxyribonuclease V (Escherichia coli (strain K12), UniProt P04993+P07648+P08394); assay: E. coli RecBCD inhibitors, dose response, counter-screen for AddAB inhibitor project, absorbance, V66 E. coli, mutant T4 phage (AID 492957); assay type: functional, cell-based, Escherichia coli str. K-12 substr. MG1655
T1 sequence (P04993 whole entry): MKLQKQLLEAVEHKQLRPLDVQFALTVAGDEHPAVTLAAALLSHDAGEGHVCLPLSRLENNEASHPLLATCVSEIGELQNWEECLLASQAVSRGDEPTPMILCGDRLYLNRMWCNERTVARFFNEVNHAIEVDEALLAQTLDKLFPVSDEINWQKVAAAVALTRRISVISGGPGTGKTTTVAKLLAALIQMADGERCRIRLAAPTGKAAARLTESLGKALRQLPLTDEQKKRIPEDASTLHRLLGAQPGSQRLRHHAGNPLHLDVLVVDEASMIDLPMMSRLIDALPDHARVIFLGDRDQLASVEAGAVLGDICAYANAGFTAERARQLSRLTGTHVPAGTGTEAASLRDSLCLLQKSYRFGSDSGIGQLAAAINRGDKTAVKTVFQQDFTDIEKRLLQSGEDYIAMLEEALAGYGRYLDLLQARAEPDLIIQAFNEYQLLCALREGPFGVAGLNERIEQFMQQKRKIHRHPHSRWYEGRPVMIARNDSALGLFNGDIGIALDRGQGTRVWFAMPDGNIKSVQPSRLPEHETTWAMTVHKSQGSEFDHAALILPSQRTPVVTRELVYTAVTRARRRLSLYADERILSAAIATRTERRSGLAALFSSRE
T1 sequence (P07648 whole entry): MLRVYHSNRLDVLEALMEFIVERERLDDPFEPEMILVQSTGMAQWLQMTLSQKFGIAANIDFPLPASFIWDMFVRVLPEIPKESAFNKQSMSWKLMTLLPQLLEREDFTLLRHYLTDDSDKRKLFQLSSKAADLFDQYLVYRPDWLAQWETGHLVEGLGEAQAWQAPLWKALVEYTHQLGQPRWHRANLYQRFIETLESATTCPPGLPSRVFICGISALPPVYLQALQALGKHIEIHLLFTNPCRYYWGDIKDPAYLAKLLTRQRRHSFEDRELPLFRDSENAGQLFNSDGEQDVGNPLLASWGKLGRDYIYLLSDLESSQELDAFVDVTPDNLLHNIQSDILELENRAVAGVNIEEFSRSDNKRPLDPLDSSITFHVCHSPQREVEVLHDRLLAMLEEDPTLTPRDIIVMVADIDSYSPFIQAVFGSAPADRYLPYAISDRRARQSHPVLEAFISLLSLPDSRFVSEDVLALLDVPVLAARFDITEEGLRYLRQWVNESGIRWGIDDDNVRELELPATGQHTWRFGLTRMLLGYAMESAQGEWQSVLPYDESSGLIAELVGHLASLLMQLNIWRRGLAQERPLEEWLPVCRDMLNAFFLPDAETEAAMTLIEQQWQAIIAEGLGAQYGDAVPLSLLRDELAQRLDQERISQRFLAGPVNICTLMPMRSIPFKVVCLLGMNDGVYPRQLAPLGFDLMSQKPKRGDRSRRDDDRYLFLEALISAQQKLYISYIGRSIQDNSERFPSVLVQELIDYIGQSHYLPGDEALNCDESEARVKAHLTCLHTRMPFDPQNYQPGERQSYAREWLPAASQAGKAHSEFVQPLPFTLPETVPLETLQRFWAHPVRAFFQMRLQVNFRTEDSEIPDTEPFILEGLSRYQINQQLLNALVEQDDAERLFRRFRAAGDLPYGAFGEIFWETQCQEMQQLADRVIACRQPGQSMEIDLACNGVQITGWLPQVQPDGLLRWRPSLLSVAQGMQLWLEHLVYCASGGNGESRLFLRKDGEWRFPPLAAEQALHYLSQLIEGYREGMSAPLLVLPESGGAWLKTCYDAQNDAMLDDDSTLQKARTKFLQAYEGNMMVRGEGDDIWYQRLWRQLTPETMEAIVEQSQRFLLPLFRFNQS
T1 sequence (P08394 whole entry): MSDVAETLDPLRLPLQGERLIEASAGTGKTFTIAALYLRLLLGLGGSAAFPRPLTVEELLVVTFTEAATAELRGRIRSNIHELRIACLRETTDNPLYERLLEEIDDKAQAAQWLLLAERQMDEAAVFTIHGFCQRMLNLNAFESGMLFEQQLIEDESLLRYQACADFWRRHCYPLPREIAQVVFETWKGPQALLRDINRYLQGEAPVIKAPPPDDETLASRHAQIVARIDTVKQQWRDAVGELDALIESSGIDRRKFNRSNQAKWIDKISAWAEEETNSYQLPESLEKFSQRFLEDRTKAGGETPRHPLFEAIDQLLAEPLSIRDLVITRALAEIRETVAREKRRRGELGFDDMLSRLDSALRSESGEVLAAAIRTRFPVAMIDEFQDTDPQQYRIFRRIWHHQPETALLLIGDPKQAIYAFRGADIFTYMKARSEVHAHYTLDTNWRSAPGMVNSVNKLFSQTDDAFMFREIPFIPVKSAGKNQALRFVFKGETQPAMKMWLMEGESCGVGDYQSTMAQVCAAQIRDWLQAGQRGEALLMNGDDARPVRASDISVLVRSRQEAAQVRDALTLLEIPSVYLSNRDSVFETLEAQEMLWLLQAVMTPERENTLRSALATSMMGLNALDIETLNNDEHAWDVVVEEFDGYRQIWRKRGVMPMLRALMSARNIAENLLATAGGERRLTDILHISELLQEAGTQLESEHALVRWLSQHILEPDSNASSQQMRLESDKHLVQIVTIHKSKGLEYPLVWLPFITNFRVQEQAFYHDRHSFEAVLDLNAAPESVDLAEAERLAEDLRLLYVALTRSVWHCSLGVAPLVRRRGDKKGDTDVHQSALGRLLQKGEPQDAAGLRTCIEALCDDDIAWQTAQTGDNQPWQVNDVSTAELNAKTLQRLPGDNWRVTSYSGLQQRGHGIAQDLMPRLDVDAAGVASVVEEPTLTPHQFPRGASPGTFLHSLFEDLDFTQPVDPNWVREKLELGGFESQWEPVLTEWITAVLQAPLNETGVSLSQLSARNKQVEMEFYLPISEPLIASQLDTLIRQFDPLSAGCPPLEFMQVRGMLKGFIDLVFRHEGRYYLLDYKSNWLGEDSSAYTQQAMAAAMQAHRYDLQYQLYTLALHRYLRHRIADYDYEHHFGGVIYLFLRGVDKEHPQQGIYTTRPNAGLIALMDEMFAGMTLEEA

[2] = molecular target: Glucose-6-phosphate 1-dehydrogenase (Homo sapiens, UniProt P11413); assay: human G6PD enzyme inhibitors, dose response, selectivity assay for P. falciparum G6PD inhibitor project, biochemical, fluorescence (AID 504792); assay type: functional
Vero [3] = assay: cells; assay type: functional; conditions: Chlorocebus sabaeus
Vero [4] = assay: Vero cell cytotoxicity, cytotoxicity control for flavivirus capping enzyme inhibitors (AID 588742); assay type: functional; conditions: Chlorocebus sabaeus
Vero [5] = assay: cells; assay type: functional, cell-based; conditions: Chlorocebus sabaeus
HEK293 [6] = assay: HEK cell cytotoxicity by LDH release, dose response, cytotoxicity control for IDE activator project, fluorescence, HEK cells (AID 588440); assay type: functional, cell-based, Homo sapiens; conditions: Homo sapiens, HEK293;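 also: cytotoxicity by LDH release measuring loss of membrane integrity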
HEK293 [7] = assay: optical interference in Abeta FP readout, dose response, artefact control for IDE activator project, biochemical, fluorescence polarization (AID 588442); assay type: functional, cell-based; conditions: Homo sapiens
Insulin-degrading enzyme [8] = molecular target: T2, Insulin-degrading enzyme (Homo sapiens, UniProt P14735); assay: activators of endogenous IDE in HEK cells, dose response, cell-based, fluorescence polarization (AID 588439); assay type: functional
T2 sequence (P14735 whole entry): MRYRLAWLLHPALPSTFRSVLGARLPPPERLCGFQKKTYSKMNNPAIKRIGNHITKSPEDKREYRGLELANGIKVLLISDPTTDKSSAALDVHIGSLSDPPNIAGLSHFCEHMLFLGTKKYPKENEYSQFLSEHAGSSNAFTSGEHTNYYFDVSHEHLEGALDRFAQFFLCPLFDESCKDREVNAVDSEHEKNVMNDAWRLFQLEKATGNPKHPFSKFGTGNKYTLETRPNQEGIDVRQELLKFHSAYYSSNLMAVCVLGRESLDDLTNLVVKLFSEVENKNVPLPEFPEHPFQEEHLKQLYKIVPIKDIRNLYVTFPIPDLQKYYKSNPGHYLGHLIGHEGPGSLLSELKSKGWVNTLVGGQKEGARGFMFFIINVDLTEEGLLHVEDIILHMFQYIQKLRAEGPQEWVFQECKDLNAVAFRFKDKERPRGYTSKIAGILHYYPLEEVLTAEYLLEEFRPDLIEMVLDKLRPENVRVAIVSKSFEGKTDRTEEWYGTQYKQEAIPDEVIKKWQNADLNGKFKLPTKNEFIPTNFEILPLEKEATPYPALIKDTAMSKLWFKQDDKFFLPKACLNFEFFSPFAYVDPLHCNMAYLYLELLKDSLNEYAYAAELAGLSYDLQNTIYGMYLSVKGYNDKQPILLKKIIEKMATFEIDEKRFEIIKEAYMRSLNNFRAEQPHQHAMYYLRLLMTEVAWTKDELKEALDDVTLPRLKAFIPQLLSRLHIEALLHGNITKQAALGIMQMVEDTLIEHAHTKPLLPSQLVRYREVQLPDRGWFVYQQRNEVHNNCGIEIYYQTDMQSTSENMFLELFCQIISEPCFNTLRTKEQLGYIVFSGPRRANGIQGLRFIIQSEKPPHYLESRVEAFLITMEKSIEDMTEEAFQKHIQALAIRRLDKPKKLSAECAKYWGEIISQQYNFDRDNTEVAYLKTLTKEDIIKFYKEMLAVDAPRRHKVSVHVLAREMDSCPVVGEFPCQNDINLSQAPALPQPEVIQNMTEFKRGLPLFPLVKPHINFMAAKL

Insulin-degrading enzyme [9] = molecular target: T2, Insulin-degrading enzyme; assay: activators of recombinant IDE enzyme, dose response, counter-screen for IDE activator project, biochemical, fluorescence polarization (AID 588681)
[10] = HEp-2 cell cytotoxicity, dose response, cytotoxicity control for RSV inhibitor project, HTS (AID 2410); assay type: functional; conditions: human respiratory syncytial virus
[11] = molecular target: T3, Kappa-type opioid receptor (Homo sapiens, UniProt P41145); assay type: functional
Nonstructural protein 1 = Nonstructural protein 1 (Influenza A virus, UniProt Q194T2); assay type: functional, Influenza A virus (A/California/07/2009(H1N1))
[12] = molecular target: T3, Kappa-type opioid receptor; assay type: functional; remark: listed apart in the source
[13] = molecular target: T4, Heat shock factor protein 1 (Mus musculus, UniProt P38532); assay: inhibition of MG132-induced HSE-luciferase signal, confirmation, cell-based, NIH3T3, luminescence, dose retest (AID 2382); assay type: functional;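 also: NIH3T3 fibroblasts with HSF1-driven luciferase reporter stressed by proteasome inhibitor MG132; luminescence from HSF1-driven luciferase expression after 8 hours of MG132 stress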
T4 sequence (P38532 whole entry): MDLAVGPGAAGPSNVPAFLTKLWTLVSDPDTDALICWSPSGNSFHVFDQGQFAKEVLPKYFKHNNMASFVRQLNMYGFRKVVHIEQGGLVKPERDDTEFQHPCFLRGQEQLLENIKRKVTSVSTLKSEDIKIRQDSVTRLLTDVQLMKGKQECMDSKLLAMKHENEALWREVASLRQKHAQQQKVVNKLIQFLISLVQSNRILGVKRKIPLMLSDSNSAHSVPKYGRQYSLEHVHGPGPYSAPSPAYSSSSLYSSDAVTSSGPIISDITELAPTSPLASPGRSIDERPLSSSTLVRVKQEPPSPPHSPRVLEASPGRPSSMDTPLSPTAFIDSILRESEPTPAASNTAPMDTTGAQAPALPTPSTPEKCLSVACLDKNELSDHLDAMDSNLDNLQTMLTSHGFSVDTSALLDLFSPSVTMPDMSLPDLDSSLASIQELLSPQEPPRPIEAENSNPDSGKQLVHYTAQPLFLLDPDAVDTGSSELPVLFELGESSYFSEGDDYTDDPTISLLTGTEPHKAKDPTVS

Beta-galactosidase = Beta-galactosidase (Escherichia coli, UniProt Q8VNN2); assay type: functional
Chain of Beta-galactosidase (Q8VNN2 whole entry): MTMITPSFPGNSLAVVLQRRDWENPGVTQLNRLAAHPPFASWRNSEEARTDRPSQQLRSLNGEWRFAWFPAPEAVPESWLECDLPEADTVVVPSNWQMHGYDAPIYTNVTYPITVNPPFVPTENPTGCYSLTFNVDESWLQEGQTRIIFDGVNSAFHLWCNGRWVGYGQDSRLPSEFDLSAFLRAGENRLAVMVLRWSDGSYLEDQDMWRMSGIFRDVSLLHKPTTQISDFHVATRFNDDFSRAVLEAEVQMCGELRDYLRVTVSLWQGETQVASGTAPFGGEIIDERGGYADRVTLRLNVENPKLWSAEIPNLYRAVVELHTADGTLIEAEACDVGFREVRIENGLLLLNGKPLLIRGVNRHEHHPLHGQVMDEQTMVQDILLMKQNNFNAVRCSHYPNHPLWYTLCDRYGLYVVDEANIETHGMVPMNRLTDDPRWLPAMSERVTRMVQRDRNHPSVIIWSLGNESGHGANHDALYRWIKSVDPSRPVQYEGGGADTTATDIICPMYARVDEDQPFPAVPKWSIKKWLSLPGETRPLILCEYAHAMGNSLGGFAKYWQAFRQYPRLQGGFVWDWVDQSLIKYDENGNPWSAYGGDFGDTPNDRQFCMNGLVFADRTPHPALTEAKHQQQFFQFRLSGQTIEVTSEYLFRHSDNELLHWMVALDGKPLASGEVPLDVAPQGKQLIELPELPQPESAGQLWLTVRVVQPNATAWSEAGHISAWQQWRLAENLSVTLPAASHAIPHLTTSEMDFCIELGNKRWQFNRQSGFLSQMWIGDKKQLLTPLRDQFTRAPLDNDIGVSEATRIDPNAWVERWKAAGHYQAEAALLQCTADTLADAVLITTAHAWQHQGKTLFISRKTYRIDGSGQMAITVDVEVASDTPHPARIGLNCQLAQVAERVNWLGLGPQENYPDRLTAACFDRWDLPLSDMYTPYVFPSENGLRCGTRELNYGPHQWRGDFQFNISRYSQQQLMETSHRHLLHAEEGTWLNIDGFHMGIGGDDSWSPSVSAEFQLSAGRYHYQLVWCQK

Chain of Cytochrome P450 2C9 (P11712 whole entry): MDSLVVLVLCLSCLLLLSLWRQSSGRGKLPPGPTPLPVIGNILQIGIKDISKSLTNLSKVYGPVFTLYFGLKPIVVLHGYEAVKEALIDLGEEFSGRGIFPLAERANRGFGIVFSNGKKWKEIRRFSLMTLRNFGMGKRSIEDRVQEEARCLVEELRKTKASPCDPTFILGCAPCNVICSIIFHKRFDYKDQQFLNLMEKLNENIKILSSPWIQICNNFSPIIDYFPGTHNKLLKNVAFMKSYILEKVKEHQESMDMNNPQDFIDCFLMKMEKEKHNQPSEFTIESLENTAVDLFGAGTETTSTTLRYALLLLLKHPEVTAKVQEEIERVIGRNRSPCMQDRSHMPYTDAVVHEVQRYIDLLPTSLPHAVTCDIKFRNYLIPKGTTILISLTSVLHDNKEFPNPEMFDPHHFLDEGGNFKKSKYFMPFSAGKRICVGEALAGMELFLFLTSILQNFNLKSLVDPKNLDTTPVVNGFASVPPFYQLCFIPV
T3 sequence (P41145 whole entry): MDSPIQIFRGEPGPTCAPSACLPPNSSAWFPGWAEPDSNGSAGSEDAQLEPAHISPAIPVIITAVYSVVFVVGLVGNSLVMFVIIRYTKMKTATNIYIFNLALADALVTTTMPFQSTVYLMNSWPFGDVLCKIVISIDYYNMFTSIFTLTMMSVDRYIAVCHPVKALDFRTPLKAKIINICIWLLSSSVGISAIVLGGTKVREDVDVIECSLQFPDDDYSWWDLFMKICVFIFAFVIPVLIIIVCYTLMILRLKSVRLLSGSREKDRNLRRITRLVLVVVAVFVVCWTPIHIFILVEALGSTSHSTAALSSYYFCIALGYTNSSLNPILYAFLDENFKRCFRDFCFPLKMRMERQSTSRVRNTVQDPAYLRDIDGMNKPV
Chain of Cytochrome P450 2D6 (P10635 whole entry): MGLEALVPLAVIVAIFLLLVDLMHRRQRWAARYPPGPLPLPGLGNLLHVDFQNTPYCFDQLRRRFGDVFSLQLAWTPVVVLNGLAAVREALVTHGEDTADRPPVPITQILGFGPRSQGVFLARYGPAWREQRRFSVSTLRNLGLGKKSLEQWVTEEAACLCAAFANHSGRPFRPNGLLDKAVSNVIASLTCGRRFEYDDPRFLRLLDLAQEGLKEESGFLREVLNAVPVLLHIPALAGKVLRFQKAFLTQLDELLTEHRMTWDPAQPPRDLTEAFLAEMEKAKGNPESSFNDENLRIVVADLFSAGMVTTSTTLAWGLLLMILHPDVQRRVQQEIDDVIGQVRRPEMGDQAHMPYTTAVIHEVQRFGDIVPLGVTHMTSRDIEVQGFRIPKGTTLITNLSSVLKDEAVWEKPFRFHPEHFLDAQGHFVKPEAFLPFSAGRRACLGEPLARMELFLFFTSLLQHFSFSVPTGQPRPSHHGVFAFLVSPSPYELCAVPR
Chain of Nonstructural protein 1 (Q194T2 whole entry): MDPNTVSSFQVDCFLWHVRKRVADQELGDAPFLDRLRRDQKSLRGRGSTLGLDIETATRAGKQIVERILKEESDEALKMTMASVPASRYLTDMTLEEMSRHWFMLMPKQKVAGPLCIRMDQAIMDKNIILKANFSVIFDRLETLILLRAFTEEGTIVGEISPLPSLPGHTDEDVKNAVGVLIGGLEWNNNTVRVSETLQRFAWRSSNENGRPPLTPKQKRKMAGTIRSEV
Chain of Glucose-6-phosphate 1-dehydrogenase (P11413 whole entry): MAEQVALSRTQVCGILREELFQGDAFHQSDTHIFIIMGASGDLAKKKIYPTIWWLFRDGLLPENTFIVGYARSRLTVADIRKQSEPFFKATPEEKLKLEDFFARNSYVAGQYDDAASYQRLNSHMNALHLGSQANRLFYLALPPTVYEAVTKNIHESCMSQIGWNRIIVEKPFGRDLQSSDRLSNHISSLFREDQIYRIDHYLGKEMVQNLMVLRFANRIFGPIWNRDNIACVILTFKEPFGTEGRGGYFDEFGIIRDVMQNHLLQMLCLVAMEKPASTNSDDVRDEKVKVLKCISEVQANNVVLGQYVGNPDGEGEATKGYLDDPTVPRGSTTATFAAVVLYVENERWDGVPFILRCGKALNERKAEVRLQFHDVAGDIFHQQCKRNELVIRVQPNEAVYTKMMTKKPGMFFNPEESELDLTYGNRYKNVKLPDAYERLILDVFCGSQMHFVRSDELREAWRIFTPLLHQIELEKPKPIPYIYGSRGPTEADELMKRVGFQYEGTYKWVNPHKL

CCN1C(=O)/C(=C2\SC(N3CCCCC3)=NC2=O)c2ccccc21
AC50 (Cytochrome P450 2D6): 3.16 µM (inconclusive) | AC50 (Cytochrome P450 2C9): inconclusive

CSc1nc(Cl)cc(N(CCO)CCO)n1
AC50 (Cytochrome P450 2C9): inconclusive

O=C(O)CC1SC(N/N=C/c2ccccn2)=NC1=O (stereo not given)
IC50 [1]: > 118 µM (inactive) | IC50 (Exodeoxyribonuclease V): > 118 µM (inactive)

CN(Cc1nnc(S)n1C)S(=O)(=O)c1ccccc1
AC50 (Cytochrome P450 2C9): inconclusive

CC(=O)Nc1cc([N+](=O)[O-])ccc1OCc1ccccc1
IC50 [2]: > 80 µM (inactive)

CN=c1ccc(Br)cc(C(=O)/C=C/c2cccc(Cl)c2Cl)c1O
CC50 (Vero [3]): 9.23 µM (active) | CC50 (Vero [4]): 18 µM (active) | IC50 (Vero [5]): > 25 µM (active)

O=C1Nc2ccccc2C2=NC(CN3CCN(c4cccc(Cl)c4)CC3)CN12 (stereo not given)
AC50 (Cytochrome P450 2C9): inconclusive

CCn1c(=O)c([N+](=O)[O-])c(NCc2ccc3c(c2)OCO3)c2ccccc21
IC50 (HEK293 [6]): > 89.2 µM (inactive) | EC50 (HEK293 [7]): > 55.9 µM (inactive) | EC50 (Insulin-degrading enzyme [8]): > 54.7 µM (inactive) | EC50 (Insulin-degrading enzyme [9]): > 54.7 µM (inactive)

O=C(O)c1cc(-c2ccc3ccccc3c2)nc2ccc(F)cc12
CC50 [10]: 12.1 µM (active) | IC50 (Vero [5]): > 25 µM (active) | IC50 (cells): 19.2 µM (active)

O=C(CSC1=NNC(c2ccccn2)S1)Nc1ccccc1 (stereo not given)
IC50 [11]: > 32 µM | IC50 (Nonstructural protein 1): 0.986 µM (active) | IC50 [12]: > 31.5 µM (inactive) | EC50 [13]: 3.04 µM (active) | EC50 (Beta-galactosidase): > 31.5 µM (inactive) | IC50 [1]: > 118 µM (inactive) | IC50 (Exodeoxyribonuclease V): > 118 µM (inactive)
